Source: US20230000773A1, “NOVEL HEADGROUP LIPID COMPOUNDS AND COMPOSITIONS FOR INTRACELLULAR DELIVERY OF THERAPEUTIC AGENTS” (ModernaTX, Inc., priority 2019, published 2023)
Where a name gives a salt, the structure may show the parent alone.

How the values were obtained:
[1] = Apparent LNP pKa by 2-(p-toluidino)-6-napthalene sulfonic acid (TNS) assay; type: physicochemical; conditions: pH at half of maximum fluorescence
[2] = Heparin-sepharose binding of nanoparticles
[3] = Encapsulation efficiency (% EE), ribogreen; type: physicochemical; conditions: nanoparticles, compound:DSPC:cholesterol:PEG 2 50:10:38:2 mol %
Text: The efficiency of encapsulation of a therapeutic and/or prophylactic describes the amount of therapeutic and/or prophylactic that is encapsulated or otherwise associated with a lipid nanoparticle (e.g., an empty LNP or a loaded LNP) after preparation, relative to the initial amount provided. The encapsulation efficiency is desirably high (e.g., close to 100%). The encapsulation efficiency may be measured, for example, by comparing the amount of therapeutic and/or prophylactic in a solution containing the lipid nanoparticle (e.g., an empty LNP or a loaded LNP) before and after breaking up the lipid nanoparticle (e.g., an empty LNP or a loaded LNP) with one or more organic solvents or detergents. Fluorescence may be used to measure the amount of free therapeutic and/or prophylactic (e.g., RNA) in a solution.
(§1) Nanoparticle compositions including a therapeutic and/or prophylactic can be optimized according to the selection of a compound according to Formula (I), (I-1), (A), (A-1), (A-1a), or (A-1b), the selection of additional lipids, the amount of each lipid in the lipid component, and the wt:wt ratio of the lipid component to the therapeutic and/or prophylactic. Nanoparticle compositions including DSPC as a phospholipid, cholesterol as a structural lipid, PEG 2 as a PEG lipid, and a compound according to Formula (I), (I-1), (A), (A-1), (A-1a), or (A-1b) were prepared. The ratios of the lipids were 50:10:38:2 mol % for the lipid according to Formula (I), (I-1), (A), (A-1), (A-1a), or (A-1b):DSPC:cholesterol:PEG 2. […]

[4] = Size and polydispersity index of nanoparticles comprising compounds of the disclosure; type: physicochemical; conditions: compound:DSPC:cholesterol:PEG 2 50:10:38:2 mol %
Text: Lipid nanoparticles (e.g., empty LNPs or loaded LNPs) may be characterized by a variety of methods. For example, microscopy (e.g., transmission electron microscopy or scanning electron microscopy) may be used to examine the morphology and size distribution of a nanoparticle composition. Dynamic light scattering or potentiometry (e.g., potentiometric titrations) may be used to measure zeta potentials. Dynamic light scattering may also be utilized to determine particle sizes. Instruments such as the Zetasizer Nano ZS (Malvern Instruments Ltd, Malvern, Worcestershire, UK) may also be used to measure multiple characteristics of a nanoparticle composition, such as particle size, polydispersity index, and zeta potential.
as §1

hEPO mRNA = assay: hEPO expression in CD1-mice after intravenous administration of nanoparticles; type: in vivo; conditions: 6 h after intravenous administration, mRNA dose 0.5 mg/kg, N:P 3.4, compound:DSPC:cholesterol:PEG 2 50:10:38:2
Procedure: The expression of hEPO mRNA in CD1-mice was measured 6 h after intravenous administration of nanoparticles comprising a compound of the disclosure, DSPC, cholesterol, and PEG 2 in a ratio of 50:10:38:2. […] Each composition was dosed to 8 animals at an mRNA dose of 0.5 mg/kg.

[5] = Surface hydrophobicity by Generalized Polarization by Laurdan (GPL); type: physicochemical; conditions: normalized Generalized Polarization by Laurdan; higher N-GP = less polar surface
Text: Nanoparticle compositions including a therapeutic and/or prophylactic can be optimized according to the selection of a compound according to Formula (I), (I-1), (A), (A-1), (A-1a), or (A-1b), the selection of additional lipids, the amount of each lipid in the lipid component, and the wt:wt ratio of the lipid component to the therapeutic and/or prophylactic. Nanoparticle compositions including DSPC as a phospholipid, cholesterol as a structural lipid, PEG 2 as a PEG lipid, and a compound according to Formula (I), (I-1), (A), (A-1), (A-1a), or (A-1b) were prepared. The ratios of the lipids were 50:10:38:2 mol % for the lipid according to Formula (I), (I-1), (A), (A-1), (A-1a), or (A-1b):DSPC:cholesterol:PEG 2.
Laurdan, a fluorescent aminonaphthalene ketone lipid, was post-inserted into the nanoparticle surface and the fluorescence spectrum of Laurdan was collected to determine the normalized Generalized Polarization (N-GP). Higher N-GP indicates a less polar surface.

| Structure (SMILES) | LogIC50 (pKa) [1] | Relative % Area Bound by LNP [2] [%] | % EE (ribogreen) [3] [%] | PDI [4] | Size (nm) [4] [nm] | Average N-GP [5] | Avg. [hEPO] mIU/mL (hEPO mRNA) [mIU/mL] |
| --- | --- | --- | --- | --- | --- | --- | --- |
| CCCCCCCCC(CC)OC(=O)CCCCCCCN(CCCCCCCC(=O)OC(CCCCCCCC)CCCCCCCC)CCCn1ccc2cc([N+](=O)[O-])ccc21 (stereo not shown) [Compound 48, Heptadecan-9-yl 8-((3-(5-nitro-1H-indol-1-yl)propyl)(8-oxo-8-(undecan-3-yloxy)octyl)amino)octanoate] | 6.41 | 0 | −11.2 | 0.196 | 54.3 |  | 0 |
| CCCCCCCCC(CC)OC(=O)CCCCCCCN(CCCCCCCC(=O)OC(CCCCCCCC)CCCCCCCC)CCCNC(C(=O)NC)C(=O)NC (stereo not shown) [Compound 16, Heptadecan-9-yl 8-((3-((1,3-bis(methylamino)-1,3-dioxopropan-2-yl)amino)propyl)(8-oxo-8-(undecan-3-yloxy)octyl)amino)octanoate Trifluoroacetate Salt] | 7.01 | 57.65 |  |  |  | 0.595 | 1.72E+05 |
| CCCCCCCCC(CC)OC(=O)CCCCCCCN(CCCCCCCC(=O)OC(CCCCCCCC)CCCCCCCC)CCCNc1nccnc1NC (stereo not shown) [Compound 25, Heptadecan-9-yl 8-((3-((3-(methylamino)pyrazin-2-yl)amino)propyl)(8-oxo-8-(undecan-3-yloxy)octyl)amino)octanoate, trifluoroacetate Salt] | 7.46 | 0 |  |  |  | 0.869 | 4.29E+05 |
| CCCCCCCCC(CC)OC(=O)CCCCCCCN(CCCCCCCC(=O)OC(CCCCCCCC)CCCCCCCC)CCCNS(=O)(=O)c1ccnn1COC (stereo not shown) [Compound 75, Heptadecan-9-yl 8-((3-((1-(methoxymethyl)-1H-pyrazole)-5-sulfonamido)propyl)(8-oxo-8-(undecan-3-yloxy)octyl)amino)octanoate] | 6.50 | 1.97 |  |  |  | 0.831 | 6.24E+05 |
| CCCCCCCCC(CC)OC(=O)CCCCCCCN(CCCCCCCC(=O)OC(CCCCCCCC)CCCCCCCC)CCCNS(=O)(=O)CC(=O)NC (stereo not shown) [Compound 80, Heptadecan-9-yl 8-((3-((2-(methylamino)-2-oxoethyl)sulfonamido)propyl)(8-oxo-8-(undecan-3-yloxy)octyl)amino)octanoate] | 6.75 | 10.99 |  |  |  | 0.703 | 7.69E+04 |
| CCCCCCCCC(CC)OC(=O)CCCCCCCN(CCCCCCCC(=O)OC(CCCCCCCC)CCCCCCCC)CCCNC(=O)C1CCC(=O)N1 (stereo not shown) [Compound 78, Heptadecan-9-yl 8-((8-oxo-8-(undecan-3-yloxy)octyl)(3-(5-oxopyrrolidine-2-carboxamido)propyl)amino)octanoate] | 6.94 | 36.14 |  |  |  | 0.622 | 1.11E+05 |

Second part, led by results:

| LogIC50 (pKa) [1] | Relative % Area Bound by LNP [2] [%] | % EE (ribogreen) [3] [%] | PDI [4] | Size (nm) [4] [nm] | Average N-GP [5] | Structure (SMILES) | Avg. [hEPO] mIU/mL (hEPO mRNA) [mIU/mL] |
| --- | --- | --- | --- | --- | --- | --- | --- |
| 6.56 | 0 | 98.8 | 0.114 | 60.8 |  | CCCCCCCCC(CC)OC(=O)CCCCCCCN(CCCCCCCC(=O)OC(CCCCCCCC)CCCCCCCC)CCCNc1cc(=O)[nH]c(=O)[nH]1 (stereo not shown) [Compound 24, Heptadecan-9-yl 8-((3-((2,6-dioxo-1,2,3,6-tetrahydropyrimidin-4-yl)amino)propyl)(8-oxo-8-(undecan-3-yloxy)octyl)amino)octanoate] | 2.05E+05 |
| 6.68 | 6.45 | 98.9 | 0.199 | 63.5 |  | CCCCCCCCC(CC)OC(=O)CCCCCCCN(CCCCCCCC(=O)OC(CCCCCCCC)CCCCCCCC)CCCNc1nc2[nH]cnc2c(=O)[nH]1 (stereo not shown) [Compound 29, Heptadecan-9-yl 8-((3-((6-oxo-6,9-dihydro-1H-purin-2-yl)amino)propyl)(8-oxo-8-(undecan-3-yloxy)octyl)amino)octanoate] | 8.93E+04 |
| 6.09 | 0 | 98.1 | 0.18 | 69.8 |  | CCCCCCCCC(CC)OC(=O)CCCCCCCN(CCCCCCCC(=O)OC(CCCCCCCC)CCCCCCCC)CCCNc1noc(N)n1 (stereo not shown) [Compound 50, Heptadecan-9-yl 8-((3-((5-amino-1,2,4-oxadiazol-3-yl)amino)propyl)(8-oxo-8-(undecan-3-yloxy)octyl)amino)octanoate] | 1.91E+05 |
| 7.59 | 50.19 | 99.4 | 0.141 | 62.5 |  | CCCCCCCCC(CC)OC(=O)CCCCCCCN(CCCCCCCC(=O)OC(CCCCCCCC)CCCCCCCC)CCCNc1cc[nH]c(=O)n1 (stereo not shown) [Compound 21, Heptadecan-9-yl 8-((3-((2-oxo-1,2-dihydropyrimidin-4-yl)amino)propyl)(8-oxo-8-(undecan-3-yloxy)octyl)amino)octanoate] | 7.04E+04 |
| 6.13 | 1.43 | 85.0 | 0.139 | 78.9 |  | CCCCCCCCC(CC)OC(=O)CCCCCCCN(CCCCCCCC(=O)OC(CCCCCCCC)CCCCCCCC)CCCNC(=O)C(=O)NC (stereo not shown) [Compound 12, Heptadecan-9-yl 8-((3-(2-(methylamino)-2-oxoacetamido)propyl)(8-oxo-8-(undecan-3-yloxy)octyl)amino)octanoate] | 2.29E+05 |
| 7.65 | 21.86 | 95.1 | 0.104 | 60.8 |  | CCCCCCCCC(CC)OC(=O)CCCCCCCN(CCCCCCCC(=O)OC(CCCCCCCC)CCCCCCCC)CCCNC1=NS(=O)(=O)N=C1NC (stereo not shown) [Compound 2, Heptadecan-9-yl 8-((3-((4-(methylamino)-1,1-dioxido-1,2,5-thiadiazol-3-yl)amino)propyl)(8-oxo-8-(undecan-3-yloxy)octyl)amino)octanoate] | 6.57E+04 |
| 6.48 | 2.25 |  |  |  | 0.921 | CCCCCCCCC(CC)OC(=O)CCCCCCCN(CCCCCCCC(=O)OC(CCCCCCCC)CCCCCCCC)CCCN/C=C1\NC(=O)NC1=O (mixture of isomers) [Compound 51/52, Heptadecan-9-yl (E/Z)-8-((3-(((2,5-dioxoimidazolidin-4-ylidene)methyl)amino)propyl)(8-oxo-8-(undecan-3-yloxy)octyl)amino)octanoate] | 1.86E+05 |
|  |  | 98.2 | 0.22 | 53.7 |  | CCCCCCCCC(CC)OC(=O)CCCCCCCN(CCCCCCCC(=O)OC(CCCCCCCC)CCCCCCCC)CCCN/C=C1/NC(=O)NC1=O (stereo not shown) [Compound 52] |  |
| 6.25 | 1.67 |  |  |  | 0.920 | CCCCCCCCC(CC)OC(=O)CCCCCCCN(CCCCCCCC(=O)OC(CCCCCCCC)CCCCCCCC)CCCNc1nnc(N)s1 (stereo not shown) [Compound 82, Heptadecan-9-yl 8-((3-((5-amino-1,3,4-thiadiazol-2-yl)amino)propyl)(8-oxo-8-(undecan-3-yloxy)octyl)amino)octanoate Trifluoroacetate Salt] | 2.18E+05 |
